Earlier results in patent US20240000730A1, “ANTIHISTAMINE SEMI-SOLID CHEWABLE GEL COMPOSITIONS AND METHODS OF MAKING AND USING THEREOF” (Seattle Gummy Company, priority 2021, published 2024).

Legend:
[1] = ITC measurements
[2] = ITC measurements; remark: listed apart in the source
[3] = ITC measurements; remark: listed apart in the source

association constant K(a) of the cetirizine-β-cyclodextrin complex [1]: 5641 ± 358 M⁻¹
association constant K(a) of the cetirizine-α-cyclodextrin complex [2]: 1434 ± 60 M⁻¹
association constant of the cetirizine-γ-cyclodextrin complex [3]: 1200±50 (−1)
SMILES: O=C(O)COCCN1CCN(C(c2ccccc2)c2ccc(Cl)cc2)CC1 (stereo not drawn) [Cetirizine, cetirizine]
